Test results taken from ChEMBL document CHEMBL1123796, “New antitumor agents containing the anthracene nucleus” (1987).

Legend:
Type in all cases: functional
[1] = test system: L1210; experiment: Effect on DNA synthesis was determined by incorporation of radioligand into L1210 murine leukemia at a concentration of 1 ug/mL. (*: >1 log cell kill); conditions: Mus musculus
[2] = test system: L1210; experiment: Effect on DNA synthesis was determined by incorporation of radioligand into L1210 murine leukemia at a concentration of 0.01 ug/mL; conditions: Mus musculus
[3] = test system: RPMI-8226; experiment: Effect on protein synthesis was determined by incorporation of radioligand into 8226 human myeloma cells at a concentration of 1 ug/mL. (*: >1 log cell kill)
[4] = test system: L1210; experiment: Antileukemic activity against L-1210 cells in mice at a dose of 80 mg/kg administered intraperitoneally after 1 day treatment; conditions: Mus musculus, L1210, ip, 24 h, route intraperitoneal
[5] = test system: Mus musculus; experiment: Tested for high-dose toxicity in mice at a significant dose of 30 mg/kg administered intraperitoneally after 5 days of treatment; conditions: route intraperitoneal
[6] = test system: RPMI-8226; experiment: Effect on RNA synthesis was determined by incorporation of radioligand into 8226 human myeloma cells at a concentration of 1 ug/mL. (*: >1 log cell kill)
[7] = test system: P388; experiment: Antileukemic activity against P-388 in mice at a dose of 70 mg/kg administered intraperitoneally after 1 day treatment; conditions: Mus musculus, P388, ip, 24 h, route intraperitoneal

SMILES: CN(C)CCNCc1c2ccccc2c(CNCCN(C)C)c2ccccc12
- inhibition at 1 µg/mL [1]: 48.7%
- inhibition at 0.01 µg/mL [2]: 0%
- inhibition at 1 µg/mL [3]: 45.9%
- ILS at 80 mg/kg [4]: 14%
- Lethality [5]: 0%
- inhibition at 1 µg/mL [6]: 70.4%
- ILS at 70 mg/kg [7]: 27%
